Experiments:
Test in all cases: cell viability, percent of DMSO control (CellTiter-Glo); higher = more viable cells
Settings in all cases: 72 h
[1] = test system: DFTD cell line T3 (06/0368)
Description: (§1)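 Eight-point dose titration of 41 screen hits in triplicate wells on four Tasmanian devil DFTD tumour cell lines (T1-T4) and devil fibroblasts, 384-well plates. Viability was read by CellTiter-Glo (ATP) after 72 h at 37 °C. Percent of control per plate: DMSO wells = 100%, positive-control wells = 0%.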

[2] = test system: DFTD cell line T1 (06/2887)
Description: as §1

[3] = test system: DFTD cell line T2 (05/2569)
Description: as §1

[4] = test system: DFTD cell line T4 (07/0192)
Description: as §1

CN(C)C/C=C/C(=O)Nc1cc2c(Nc3ccc(F)c(Cl)c3)ncnc2cc1O[C@H]1CCOC1 [Afatinib (BIBW2992)]
cell viability [%]
Settings | 0.00617 µM | 0.0185 µM | 0.0556 µM | 0.166667 µM | 0.5 µM | 1.5 µM | 4.5 µM | 13.5 µM
[1] | 105 | 84.4 | 50.4 | 34 | 31.7 | 31.5 | 24 | 6.87
[2] | 102 | 58.8 | 29 | 19 | 24.5 | 18.8 | 4.12 | 1.43
[3] | 112 | 89.2 | 72.7 | 39.8 | 43.4 | 33.4 | 30.8 | 5.92
[4] | 98.9 | 81.1 | 46.3 | 18.2 | 13.9 | 18.8 | 5.93 | 1.47

C=CC(=O)Nc1cc2c(Nc3ccc(F)c(Cl)c3)ncnc2cc1OCCCN1CCOCC1 [Canertinib (CI-1033)]
cell viability [%]
Settings | 0.00617 µM | 0.0185 µM | 0.0556 µM | 0.166667 µM | 0.5 µM | 1.5 µM | 4.5 µM | 13.5 µM
[1] | 92.6 | 110 | 113 | 110 | 89 | 49.7 | 32.5 | 38.9
[2] | 118 | 106 | 109 | 98.1 | 42.6 | 18.3 | 18.2 | 8.82
[3] | 120 | 106 | 116 | 98 | 91.1 | 33.5 | 33.7 | 13.8
[4] | 104 | 107 | 107 | 107 | 86.1 | 39.8 | 24 | 21

Nc1ccc(F)cc1NC(=O)c1ccc(CNC(=O)/C=C/c2cccnc2)cc1 [Chidamide]
cell viability [%]
Settings | 0.0309 µM | 0.0926 µM | 0.277778 µM | 0.833333 µM | 2.5 µM | 7.5 µM | 22.5 µM | 67.5 µM
[1] | 102 | 78.9 | 56.3 | 39 | 18.9 | 18.2 | 14.3 | 11.1
[2] | 111 | 97.4 | 38.5 | 28.7 | 9.38 | -0.502 | 13.2 | 18.1
[3] | 102 | 79.7 | 69.8 | 29.6 | 11.9 | 9.75 | 7.82 | 9.23
[4] | 112 | 101 | 83 | 48.5 | 22.2 | 19.1 | 15.3 | 20.2

CC1(C)CC(=O)C2=C(C1)NC(=S)NC2c1cccc(O)c1 (stereo not given) [Dimethylenastron]
cell viability [%]
Settings | 0.00617 µM | 0.0185 µM | 0.0556 µM | 0.166667 µM | 0.5 µM | 1.5 µM | 4.5 µM | 13.5 µM
[1] | 101 | 119 | 102 | 110 | 108 | 94.4 | 103 | 86.2
[2] | 113 | 126 | 115 | 102 | 70.9 | 50.1 | 42.5 | 33.8
[3] | 107 | 130 | 117 | 104 | 92.3 | 79.2 | 73.7 | 71.3
[4] | 118 | 92.6 | 106 | 105 | 93.9 | 81.3 | 62.2 | 61.7

COc1cccc2c1C(=O)c1c(O)c3c(c(O)c1C2=O)C[C@@](O)(C(=O)CO)C[C@@H]3O[C@H]1C[C@H](N)[C@H](O)[C@H](C)O1 [Doxorubicin]
cell viability [%]
Settings | 0.00617 µM | 0.0185 µM | 0.0556 µM | 0.166667 µM | 0.5 µM | 1.5 µM | 4.5 µM | 13.5 µM
[1] | 112 | 96.6 | 98.6 | 77 | 66.5 | 21.6 | -3.26 | 4.78
[2] | 109 | 105 | 104 | 85.8 | 61.2 | 2.77 | -6.73 | -3.65
[3] | 108 | 98.7 | 96.5 | 88.7 | 64.5 | 13.4 | -8.33 | -4.69
[4] | 104 | 106 | 96.8 | 84.9 | 53.4 | 2.44 | -5.87 | -5.47

C#Cc1cccc(Nc2ncnc3cc(OCCOC)c(OCCOC)cc23)c1.Cl [Erlotinib hydrochloride]
cell viability [%]
Settings | 0.00617 µM | 0.0185 µM | 0.0556 µM | 0.166667 µM | 0.5 µM | 1.5 µM | 4.5 µM | 13.5 µM
[1] | 121 | 105 | 122 | 93.5 | 87.4 | 60.8 | 47.1 | 30.7
[2] | 138 | 126 | 104 | 87.3 | 86.4 | 38.1 | 29.1 | 14.2
[3] | 124 | 142 | 118 | 90.4 | 98.83 | 56.3 | 33.7 | 18.2
[4] | 117 | 114 | 119 | 99.9 | 104 | 61.7 | 47.2 | 19.7

C#Cc1cccc(Nc2ncnc3cc(OCCOC)c(OCCOC)cc23)c1 [Erlotinib]
cell viability [%]
Settings | 0.0123 µM | 0.037 µM | 0.111111111 µM | 0.333333 µM | 1 µM | 3 µM | 9 µM | 27 µM
[1] | 101 | 108 | 99.9 | 81.5 | 68.8 | 49.3 | 33.1 | 40.5
[2] | 108 | 104 | 113 | 101 | 57.3 | 35.3 | 19.8 | 17
[3] | 104 | 80.4 | 102 | 89.2 | 72.1 | 46.1 | 24.3 | 34.5
[4] | 88.3 | 115 | 117 | 79.3 | 85.1 | 43.3 | 24.4 | 22

COc1cc2c(cc1-c1c(C)noc1C)ncc1[nH]c(=O)n([C@H](C)c3ccccn3)c12 [I-BET151]
cell viability [%]
Settings | 0.0309 µM | 0.0926 µM | 0.277778 µM | 0.833333 µM | 2.5 µM | 7.5 µM | 22.5 µM | 67.5 µM
[1] | 102 | 106 | 117 | 64.5 | 47.6 | 35.1 | 36.6 | 45.2
[2] | 119 | 126 | 92.8 | 31.3 | 28.6 | 16.7 | 23 | 37.9
[3] | 95.3 | 120 | 141 | 81.4 | 50.3 | 21.1 | 22.3 | 32.5
[4] | 87.7 | 107 | 87.5 | 47.8 | 49.6 | 38.9 | 42.9 | 53

Cc1cc(Nc2ncnc3ccc(NC4=NC(C)(C)CO4)cc23)ccc1Oc1ccn2ncnc2c1 [Irbinitinib(ARRY-380; ONT-380)]
cell viability [%]
Settings | 0.00617 µM | 0.0185 µM | 0.0556 µM | 0.166667 µM | 0.5 µM | 1.5 µM | 4.5 µM | 13.5 µM
[1] | 112 | 116 | 111 | 98.9 | 67.1 | 54.9 | 45.3 | 48.6
[2] | 113 | 111 | 94.9 | 89.7 | 41.5 | 30.3 | 33 | 33.4
[3] | 102 | 90.6 | 98.1 | 95.7 | 65.7 | 45.7 | 50.6 | 42.5
[4] | 106 | 109 | 105 | 92.6 | 60.1 | 46.2 | 43.5 | 36.6

CS(=O)(=O)CCNCc1ccc(-c2ccc3ncnc(Nc4ccc(OCc5cccc(F)c5)c(Cl)c4)c3c2)o1.Cc1ccc(S(=O)(=O)O)cc1.Cc1ccc(S(=O)(=O)O)cc1.O [Lapatinib ditosylate monohydrate]
cell viability [%]
Settings | 0.00617 µM | 0.0185 µM | 0.0556 µM | 0.166667 µM | 0.5 µM | 1.5 µM | 4.5 µM | 13.5 µM
[1] | 104 | 94.6 | 92.3 | 85.4 | 69.8 | 38.4 | 48.1 | 34
[2] | 107 | 96.9 | 92.2 | 59.3 | 38.8 | 27.7 | 31.9 | 17.9
[3] | 100 | 88.5 | 87.2 | 74.9 | 58.2 | 41.5 | 40.8 | 24.9
[4] | 98.9 | 94 | 94.6 | 68.7 | 60.1 | 29.7 | 38.5 | 24.5

CS(=O)(=O)CCNCc1ccc(-c2ccc3ncnc(Nc4ccc(OCc5cccc(F)c5)c(Cl)c4)c3c2)o1 [Lapatinib]
cell viability [%]
Settings | 0.0123 µM | 0.037 µM | 0.111111111 µM | 0.333333 µM | 1 µM | 3 µM | 9 µM | 27 µM
[1] | 80.9 | 110 | 84.9 | 70.4 | 42.1 | 44.9 | 31.7 | 5.72
[2] | 87.5 | 112 | 87.1 | 42.6 | 30.1 | 28.2 | 21.2 | 12.5
[3] | 78.4 | 133 | 100 | 68.6 | 40.4 | 44.6 | 21.6 | 8.25
[4] | 81.5 | 113 | 84.5 | 53 | 32 | 29.4 | 20.7 | 16.9

C=CC(=O)Nc1cc(Nc2ncc(Cl)c(-c3c[nH]c4ccccc34)n2)c(OC)cc1N(C)CCN(C)C [Mutant EGFR inhibitor]
cell viability [%]
Settings | 0.00617 µM | 0.0185 µM | 0.0556 µM | 0.166667 µM | 0.5 µM | 1.5 µM | 4.5 µM | 13.5 µM
[1] | 87 | 93 | 86.5 | 39.6 | 38.2 | 22 | 12.8 | 26.6
[2] | 94.7 | 83.8 | 62.6 | 29.1 | 26.6 | 9.39 | 1.63 | 7.99
[3] | 98.2 | 93.9 | 94.8 | 50.8 | 37.3 | 16.6 | 5.63 | 11.5
[4] | 75.6 | 86.8 | 89 | 35.9 | 20.9 | 6.23 | 3.77 | 19.9

CCOc1cc2ncc(C#N)c(Nc3ccc(OCc4ccccn4)c(Cl)c3)c2cc1NC(=O)/C=C/CN(C)C [Neratinib(HKI-272)]
cell viability [%]
Settings | 0.00617 µM | 0.0185 µM | 0.0556 µM | 0.166667 µM | 0.5 µM | 1.5 µM | 4.5 µM | 13.5 µM
[1] | 92 | 102 | 119 | 96.1 | 92.2 | 39.8 | 42.4 | 36.5
[2] | 97.8 | 92.2 | 125 | 90.5 | 50.7 | 29 | 29.2 | 32.5
[3] | 97 | 98 | 154 | 119 | 93.3 | 45.2 | 45.7 | 39.1
[4] | 99.8 | 88.3 | 114 | 93.5 | 62.4 | 22.9 | 25.4 | 18.8

Cc1sc2c(c1C)C(c1ccc(Cl)cc1)=N[C@@H](CC(=O)Nc1ccc(O)cc1)c1nnc(C)n1-2 [OTX015]
cell viability [%]
Settings | 0.0123 µM | 0.037 µM | 0.111111111 µM | 0.333333 µM | 1 µM | 3 µM | 9 µM | 27 µM
[1] | 104 | 120 | 84.2 | 79.8 | 57.3 | 50.5 | 46.8 | 54.8
[2] | 103 | 100 | 74.2 | 59.1 | 31.2 | 36 | 30.2 | 36.9
[3] | 105 | 128 | 97.9 | 104 | 70.1 | 44.1 | 36.1 | 45.3
[4] | 93.3 | 85.1 | 69.9 | 72.7 | 51.1 | 55.9 | 47.1 | 56.2

CCOc1cc2ncc(C#N)c(Nc3ccc(F)c(Cl)c3)c2cc1NC(=O)/C=C/CN(C)C [Pelitinib (EKB-569)]
cell viability [%]
Settings | 0.00617 µM | 0.0185 µM | 0.0556 µM | 0.166667 µM | 0.5 µM | 1.5 µM | 4.5 µM | 13.5 µM
[1] | 81.3 | 125 | 103 | 76.4 | 58.9 | 39.5 | 33.4 | 36.2
[2] | 82.1 | 115 | 93.5 | 76.8 | 22 | 30.3 | 34.1 | -2.36
[3] | 79.7 | 121 | 111 | 98.2 | 42.1 | 42.4 | 33.2 | 8.16
[4] | 83 | 113 | 97.4 | 77.8 | 53.1 | 18.3 | 19.6 | 22.1

Source: the supplement of paper PMC6335503
